From the CheMixHub ionic liquid set

Test: xn = mol fraction of the nth substance listed

CCC[N+]1(C)CCCC1.O=S(=O)([N-]S(=O)(=O)C(F)(F)F)C(F)(F)F + CCCCCC[N+]1(C)CCCC1.O=S(=O)([N-]S(=O)(=O)C(F)(F)F)C(F)(F)F
353.15 K, 101 kPa, x2 = 0
Settings | electrical conductivity [S/m] | viscosity [mPa·s]
– | 1.76 | 11.6

O + CCCCCC[n+]1ccc(C)cc1.[Br-]
100 kPa, frequency 0.003 MHz, x2 = 0
Settings | electrical conductivity [S/m]
288.15 K | 0.0001
308.15 K | 0.00022

CCCC[n+]1ccn(C)c1.F[B-](F)(F)F + CCCCCC[n+]1ccn(C)c1.F[B-](F)(F)F
Settings | viscosity [mPa·s]
305.15 K, 101 kPa, x1 = 1 | 75.1

CN(CCO)CCO + CCCCCC[n+]1ccn(C)c1.F[B-](F)(F)F
101 kPa, x1 = 1
Settings | viscosity [mPa·s]
303.15 K | 57.5
308.15 K | 44.2
313.15 K | 35

CC[P+](CC)(CC)COCCOC.c1c[n-]nn1 + CCCCCC[n+]1ccn(C)c1.O=S(=O)([N-]S(=O)(=O)C(F)(F)F)C(F)(F)F
100 kPa
Settings | viscosity [mPa·s]
278.15 K, x2 = 0.75 | 235
288.15 K, x2 = 0.25 | 136
293.15 K, x2 = 0.25 | 103
298.15 K, x2 = 0.75 | 76
303.15 K, x2 = 0.5 | 60

CN(CCO)CCO + CCCCCC[n+]1ccn(C)c1.O=S(=O)([N-]S(=O)(=O)C(F)(F)F)C(F)(F)F
101 kPa, x1 = 1
Settings | viscosity [mPa·s]
303.15 K | 59.8
313.15 K | 37.9
318.15 K | 29.8

CC[n+]1ccn(C)c1.N#C[N-]C#N + CCCCO
100 kPa
Settings | viscosity [mPa·s]
298.15 K, x1 = 0.3006 | 3.16
303.15 K, x1 = 0.9012 | 8.7
308.15 K, x1 = 0.3006 | 2.29
308.15 K, x1 = 0.4008 | 2.52
308.15 K, x1 = 0.7012 | 4.34
308.15 K, x1 = 0.8016 | 5.5
313.15 K, x1 = 0.2007 | 1.97
313.15 K, x1 = 0.3006 | 2.03
318.15 K, x1 = 0.6014 | 2.39
323.15 K, x1 = 0.2007 | 1.56
323.15 K, x1 = 0.4008 | 1.71

CCCCCCCCn1cc[n+](C)c1.O=S(=O)([N-]S(=O)(=O)C(F)(F)F)C(F)(F)F + CCCCOC(C)=O
298.15 K, 100 kPa
Settings | electrical conductivity [S/m] | viscosity [mPa·s]
x2 = 0 | 0.131 | 90.3
x2 = 0.2414 | 0.194 | –
x2 = 0.7054 | – | 6.46
x2 = 0.8427 | 0.361 | –

CC1COC(=O)O1 (configuration not stated) + CCCC[N+]1(C)CCCC1.O=S(=O)([N-]S(=O)(=O)C(F)(F)F)C(F)(F)F
101 kPa, x1 = 1
Settings | electrical conductivity [S/m] | viscosity [mPa·s]
293.15 K | 0.002 | 2.72
303.15 K | 0.002 | 2.29
313.15 K | 0.002 | 2

CCCC[N+]1(C)CCCC1.N#C[N-]C#N + CCCC[N+]1(C)CCCC1.O=S(=O)([N-]S(=O)(=O)C(F)(F)F)C(F)(F)F
101 kPa, frequency 0 MHz, x2 = 0.5
Settings | electrical conductivity [S/m]
318 K | 0.962
323 K | 1.12

101 kPa, x2 = 0.5
Settings | viscosity [mPa·s]
318 K | 22.7
323 K | 19.7

CCC[N+]1(C)CCCC1.O=S(=O)([N-]S(=O)(=O)C(F)(F)F)C(F)(F)F + CCCC[N+]1(C)CCCC1.O=S(=O)([N-]S(=O)(=O)C(F)(F)F)C(F)(F)F
101 kPa
Settings | electrical conductivity [S/m] | viscosity [mPa·s]
293.15 K, x2 = 0.25 | 0.248 | 81.4
333.15 K, x2 = 0 | 1.18 | 18.8
333.15 K, x2 = 0.75 | 1.01 | 20.7
353.15 K, x2 = 0.5 | 1.5 | 12.2

CCCC[N+]1(C)CCCC1.N#C[N-]C#N + CCCC[N+]1(C)CCCC1.O=S(=O)([N-]S(=O)(=O)C(F)(F)F)C(F)(F)F + O=S(=O)([N-]S(=O)(=O)C(F)(F)F)C(F)(F)F.[Li+]
electrical conductivity [S/m], 101 kPa, frequency 0 MHz
Settings | 298 K | 303 K | 308 K | 313 K | 318 K | 323 K
x2 = 0.475, x1 = 0.475 | 0.481 | 0.572 | 0.67 | 0.788 | 0.912 | 1.05
x2 = 0.5, x1 = 0.5 | 0.565 | 0.642 | 0.746 | 0.857 | 0.962 | 1.12

viscosity [mPa·s], 101 kPa
Settings | 298 K | 303 K | 308 K | 313 K | 318 K | 323 K | 328 K
x2 = 0.475, x1 = 0.475 | 60.7 | 51.9 | 42.6 | 35.9 | 31.2 | 27.6 | 24.2
x2 = 0.5, x1 = 0.5 | 51.3 | – | 32 | 26.7 | 22.7 | 19.7 | 17.06

CC[n+]1ccn(C)c1.N#C[N-]C#N + CCCC[N+](C)(CCCC)CCCC.N#C[N-]C#N
101 kPa, x1 = 1
Settings | viscosity [mPa·s]
303.15 K | 12.97
323.15 K | 8.28
343.15 K | 5.49
353.15 K | 4.63

O=C1CCCCCN1 + CCCC[N+](CCCC)(CCCC)CCCC.[Cl-]
101 kPa, x1 = 0.5
Settings | electrical conductivity [S/m]
313.15 K | 0.2162
315.65 K | 0.257
328.15 K | 0.5612

O=C1CCCCCN1 + CCCC[N+](CCCC)(CCCC)CCCC.[Cl-] + O
electrical conductivity [S/m], 101 kPa
Settings | x1 = 0.0018, x2 = 0.0018 | x1 = 0.0197, x2 = 0.0197 | x1 = 0.0481, x2 = 0.0481 | x1 = 0.0862, x2 = 0.0862 | x1 = 0.146, x2 = 0.146
293.15 K | – | 0.798 | – | – | 0.593
295.65 K | – | 0.788 | – | – | 0.6211
298.15 K | – | 0.778 | 0.799 | 0.775 | 0.639
300.65 K | – | 0.769 | 0.8 | 0.7743 | 0.6505
303.15 K | – | 0.768 | 0.795 | 0.778 | 0.659
305.65 K | – | 0.767 | 0.788 | 0.775 | 0.667
308.15 K | 0.219 | 0.767 | 0.7825 | 0.7733 | 0.677
310.65 K | 0.219 | 0.763 | 0.779 | 0.768 | 0.686
313.15 K | 0.221 | 0.758 | 0.776 | 0.7623 | 0.6923
315.65 K | 0.222 | 0.753 | 0.77 | 0.757 | 0.695
318.15 K | 0.222 | 0.744 | 0.7621 | 0.7513 | 0.699
320.65 K | 0.223 | 0.735 | 0.7545 | 0.7434 | 0.699
323.15 K | 0.223 | 0.725 | 0.746 | 0.736 | 0.698
325.65 K | 0.224 | 0.716 | 0.737 | 0.727 | 0.697
328.15 K | 0.224 | 0.704 | – | 0.719 | 0.6938
330.65 K | 0.224 | 0.693 | – | 0.7105 | 0.687
333.15 K | 0.225 | 0.681 | – | 0.7023 | 0.6811

O + CCCC[n+]1ccc(C)cc1.[Br-]
100 kPa, frequency 0.003 MHz, x2 = 0
Settings | electrical conductivity [S/m]
288.15 K | 0.0001
308.15 K | 0.00022

CC1COC(=O)O1 (configuration not stated) + CCCC[n+]1ccccc1.N#C[N-]C#N
101 kPa, x2 = 0
Settings | viscosity [mPa·s]
318.15 K | 1.724
333.15 K | 1.366

CCCC[n+]1ccn(C)c1.F[B-](F)(F)F + CCCC[n+]1ccn(C)c1.COS(=O)(=O)[O-]
101 kPa, x1 = 1
Settings | viscosity [mPa·s]
302.15 K | 88.7
305.15 K | 76.8

CN(CCO)CCO + CCCC[n+]1ccn(C)c1.F[B-](F)(F)F
101 kPa
Settings | viscosity [mPa·s]
293.15 K, x2 = 0.8999 | 105.6
303.15 K, x2 = 0.3 | 43.7
303.15 K, x2 = 0.8999 | 63.5
323.15 K, x2 = 0.1974 | 17.8
323.15 K, x2 = 0.6 | 18.8
333.15 K, x2 = 0.1974 | 12.09
333.15 K, x2 = 0.7998 | 16.8
